Data taken from patent publication US7803801B2, “Aminopyridine compounds having Syk inhibitory activity” (Japan Tobacco, Inc., priority 2005, dated 2010).
Counter-ions that a name gives are not always drawn.

target: GST-Syk Full Protein (human) (Homo sapiens, UniProt P43405); assay: Syk kinase inhibition test (HTRF method); type: biochemical; conditions: HTRF, 100 μM ATP, 30 min room temperature, average; read-out: sykHTRF ave IC50
Protocol: Syk Kinase Inhibition Test (HTRF Method)
After the compounds were serially diluted with dimethylsulfoxide (DMSO), 10 μL of those 10-fold diluted with kinase buffer (20 mM HEPES pH 7.0, 10 mM MgCl2, 50 mM NaCl, 1 mM 2-ME, 0.05% BSA) was added to opti-plate HTRF-96 (Packard) (final DMSO concentration: 2%). 20 μL of a substrate solution (kinase buffer as mentioned above containing Syk Specific-Peptide Substrate Biot-EDPDYEWPSA-NH2 (Peptide Laboratory) 625 nM, 250 μM ATP (SIGMA) was added (final substrate concentration 250 nM, 100 μM ATP), and further 20 μL of an enzyme solution (kinase buffer as mentioned above containing GST-Syk Full Protein (human) 16 nM) (final concentration 6.4 nM) was added and the mixture was immediately stirred with a plate shaker to start enzyme reaction. After reacted at room temperature (20 to 25° C.) for 30 minutes, the enzyme reaction was terminated by adding 100 μL/well of a buffer for terminating and detecting the reaction (30 mM HEPES pH 7.0, 150 mM KF, 0.15% BSA, 0.075% Tween-20, 75 mM EDTA) containing HTRF reagent (5 μg/ml XL665-Streptavidin (CIS bio), 170 ng/ml Eu(K)-anti-PhosphoTyrosin, PT-66 (CIS bio)) (final concentration 20 mM HEPES pH 7.0, 100 mM KF, 0.1% BSA, 0.05% Tween-20, 50 mM EDTA). After allowed to stand still at room temperature for 1 hour, inhibitory effect of a compound against Syk kinase enzymatic activity was evaluated by measuring 665/620 fluorescence ratio to excitation light at 337 nm by ARVO (Wallac).

`Cc1ccnc(Nc2cccc(-c3cnc([C@H](CCC(=O)OCc4ccccc4)NC(=O)OC(C)(C)C)s3)n2)c1` [Compound A-96] and `Cc1ccnc(Nc2cccc(-c3cnc(CCc4ccc(OCc5ccccc5)cc4)s3)n2)c1` [Compound A-133] cannot be ordered by IC50: greater than 1000 nM for the first, greater than 1000 nM for the second.

Compound `CNC(=O)c1nc([C@H](C)NC(C)=O)sc1-c1cccc(Nc2cc(C)ccn2)n1` [Compound A-118] has an IC50 greater than 1000 nM.

same assay, conditions: Tables 1-x, compounds A; read-out: sykHTRF ave IC50

`Cc1ccnc(Nc2cccc(-c3cnc(CN(C)CC(=O)NCC(C)(C)C)s3)n2)c1` [Compound A-689] and `Cc1ccnc(Nc2cccc(-c3cnc(CN(C)CC(=O)N(C)C)s3)n2)c1` [Compound A-688] fall in the same range of IC50: 100 to 1000 nM for the first, 100 to 1000 nM for the second.

First: Cc1ccnc(Nc2cccc(-c3cnc(N(C)C4CCC(C(=O)N(C)C)CC4)s3)n2)c1 (stereo not drawn) [Compound A-447]
Second: Cc1ccnc(Nc2cccc(-c3cnc(N(C)C4CCC(C(=O)NCCO)CC4)s3)n2)c1 (stereo not drawn) [Compound A-493, N-(2-hydroxyethyl)-4(N′-methyl-N′-{5-[6-(4-methylpyridin-2-ylamino)pyridin-2-yl]thiazol-2-yl}amino)cyclohexanecarboxamide]
The IC50 of the first is higher: 100 to 1000 nM for the first, less than 100 nM for the second.

`Cc1ccnc(Nc2cccc(-c3cnc(N(C)CCCC(=O)O)s3)n2)c1` [Compound A-634, 4-(N-methyl-N-{5-[6-(4-methylpyridin-2-ylamino)pyridin-2-yl]thiazol-2-yl}amino)butyric acid dihydrochloride] and `Cc1ccnc(Nc2cccc(-c3cnc(N(CC(N)=O)C(C)C)s3)n2)c1` [Compound A-663, 2-(N-isopropyl-N-{5-[6-(4-methylpyridin-2-ylamino)pyridin-2-yl]thiazol-2-yl}amino)acetamide] cannot be ordered by IC50: less than 100 nM for the first, less than 100 nM for the second.

Compared with `Cc1ccnc(Nc2cccc(-c3cnc(CN4CCc5c(cccc5C(=O)O)C4)s3)n2)c1` [Compound A-608], `Cc1ccnc(Nc2cccc(-c3cnc(N4CCc5c(CCC(=O)O)cccc5C4)s3)n2)c1` [Compound A-642, 3-(2-{5-[6-(4-methylpyridin-2-ylamino)pyridin-2-yl]thiazol-2-yl}-1,2,3,4-tetrahydroisoquinolin-5-yl)propionic acid] is lower in IC50: 100 to 1000 nM for the first, less than 100 nM for the second.

`Cc1ccnc(Nc2cccc(-c3cnc(N(C)C4CCC(C(=O)N[C@H]5CC[C@H](O)CC5)CC4)s3)n2)c1` (stereo partly drawn) [Compound A-496] and `Cc1ccnc(Nc2cccc(-c3cnc(N(C)C4CCN(C(=O)C5CCC(O)CC5)CC4)s3)n2)c1` (stereo not drawn) [Compound A-672] fall in the same range of IC50: 100 to 1000 nM for the first, 100 to 1000 nM for the second.

`CN(CCO)c1ncc(-c2cccc(Nc3ccccn3)n2)s1` [Compound A-706] and `CN(c1ncc(-c2cccc(Nc3ccccn3)n2)s1)C(C)(C)c1ccc(C(=O)O)cc1` [Compound A-691] fall in the same range of IC50: 100 to 1000 nM for the first, 100 to 1000 nM for the second.

Compared with `O=C(O)CC1CCN(c2ncc(-c3cccc(Nc4ccc(Cl)cn4)n3)s2)CC1` [Compound A-636, (1-{5-[6-(5-chloropyridin-2-ylamino)pyridin-2-yl]thiazol-2-yl}piperidin-4-yl)acetic acid dihydrochloride], `Cc1ccc(Nc2cccc(-c3cnc(N4CCC(CC(=O)O)CC4)s3)n2)nc1` [Compound A-629] is higher in IC50: less than 100 nM for the first, 100 to 1000 nM for the second. The first is the more potent here.

`O=C(O)C(F)C1CCN(c2ncc(-c3cccc(Nc4cnccn4)n3)s2)CC1` (stereo not drawn) [Compound A-715, fluoro-(1-{5-[6-(pyrazin-2-ylamino)pyridin-2-yl]thiazol-2-yl}piperidin-4-yl)acetic acid dihydrochloride] and `CC(C)(C(=O)O)C1CCN(c2ncc(-c3cccc(Nc4cnccn4)n3)s2)CC1` [Compound A-707, 2-methyl-2-(1-{5-[6-(pyrazin-2-ylamino)pyridin-2-yl]thiazol-2-yl}piperidin-4-yl)propionic acid dihydrochloride] cannot be ordered by IC50: less than 100 nM for the first, less than 100 nM for the second.

First: COCC1CCCN(c2ncc(-c3cccc(Nc4cc(C)ccn4)n3)s2)C1 (stereo not drawn) [Compound A-481, N-{6-[2-(3-methoxymethylpiperidin-1-yl)thiazol-5-yl]pyridin-2-yl}-N-(4-methylpyridin-2-yl)amine]
Second: Cc1ccnc(Nc2cccc(-c3cnc(N4CCC[C@H]4C(=O)O)s3)n2)c1 [Compound A-527]
The IC50 of the first is lower: less than 100 nM for the first, 100 to 1000 nM for the second.

`Cc1ccnc(Nc2cccc(-c3cnc(N(CC(N)=O)C4CCCCC4)s3)n2)c1` [Compound A-669] and `Cc1ccnc(Nc2cccc(-c3cnc(N(CCO)C4CCCCC4)s3)n2)c1` [Compound A-673] fall in the same range of IC50: 100 to 1000 nM for the first, 100 to 1000 nM for the second.

Compared with `Cc1cccc(Nc2cccc(-c3cnc(N4CCC(CC(=O)O)CC4)s3)n2)n1` [Compound A-628], `CCc1ccnc(Nc2cccc(-c3cnc(N4CCC(CC(=O)O)CC4)s3)n2)c1` [Compound A-692, (1-{5-[6-(4-ethylpyridin-2-ylamino)pyridin-2-yl]thiazol-2-yl}piperidin-4-yl)acetic acid dihydrochloride] is lower in IC50: 100 to 1000 nM for the first, less than 100 nM for the second.

`CC(=O)N(Cc1ccc(C(=O)O)cc1)Cc1ncc(-c2cccc(Nc3cc(C)ccn3)n2)s1` [Compound A-709, 4-[(N-acetyl-N-{5-[6-(4-methylpyridin-2-ylamino)pyridin-2-yl]thiazol-2-ylmethyl}amino)methyl]benzoic acid] and `Cc1ccnc(Nc2cccc(-c3cnc(N4CCc5cc(CC(=O)O)ccc5C4)s3)n2)c1` [Compound A-641, (2-{5-[6-(4-methylpyridin-2-ylamino)pyridin-2-yl]thiazol-2-yl}-1,2,3,4-tetrahydroisoquinolin-6-yl)acetic acid] cannot be ordered by IC50: less than 100 nM for the first, less than 100 nM for the second.

`Cc1ccnc(Nc2cccc(-c3cnc(N4CCC(C(C)(C)C(=O)O)CC4)s3)n2)c1` [Compound A-718, 2-methyl-2-(1-{5-[6-(4-methylpyridin-2-ylamino)pyridin-2-yl]thiazol-2-yl}piperidin-4-yl)propionic acid dihydrochloride] and `CC(C)(C)c1ccnc(Nc2cccc(-c3cnc(N4CCC(CC(=O)O)CC4)s3)n2)c1` [Compound A-710, (1-{5-[6-(4-tert-butylpyridin-2-ylamino)pyridin-2-yl]thiazol-2-yl}piperidin-4-yl)acetic acid dihydrochloride] cannot be ordered by IC50: less than 100 nM for the first, less than 100 nM for the second.

`Cc1ccnc(Nc2cccc(-c3cnc(N4CCNCC4)s3)n2)c1` [Compound A-406] and `Cc1ccnc(Nc2cccc(-c3cnc(N4CCC(C(=O)N(C)CCO)CC4)s3)n2)c1` [Compound A-448] fall in the same range of IC50: 100 to 1000 nM for the first, 100 to 1000 nM for the second.

`Cc1ccnc(Nc2cccc(-c3cnc(N4CCN(CC(=O)OC(C)(C)C)C(=O)C4)s3)n2)c1` [Compound A-463] and `CNC(=O)C(C)(C)NC(=O)C1CCN(c2ncc(-c3cccc(Nc4cc(C)ccn4)n3)s2)CC1` [Compound A-491] fall in the same range of IC50: 100 to 1000 nM for the first, 100 to 1000 nM for the second.

`N#Cc1ccnc(Nc2cccc(-c3cnc(N4CCC(CC(=O)O)CC4)s3)n2)c1` [Compound A-650, (1-{5-[6-(4-cyanopyridin-2-ylamino)pyridin-2-yl]thiazol-2-yl}piperidin-4-yl)acetic acid dihydrochloride] and `COc1ccnc(Nc2cccc(-c3cnc(N4CCC(CC(=O)O)CC4)s3)n2)c1` [Compound A-637, (1-{5-[6-(4-methoxypyridin-2-ylamino)pyridin-2-yl]thiazol-2-yl}piperidin-4-yl)acetic acid dihydrochloride] cannot be ordered by IC50: less than 100 nM for the first, less than 100 nM for the second.

`O=C(O)CC1CC2CCC(C1)N2c1ncc(-c2cccc(Nc3cc(C(F)(F)F)ccn3)n2)s1` (stereo not drawn) [Compound A-648, (8-{5-[6-(4-trifluoromethylpyridin-2-ylamino)pyridin-2-yl]thiazol-2-yl}-8-azabicyclo[3.2.1]oct-3-yl)acetic acid] and `O=C(O)CC1CCN(c2ncc(-c3cccc(Nc4cc(C(F)(F)F)ccn4)n3)s2)CC1` [Compound A-635, (1-{5-[6-(4-trifluoromethylpyridin-2-ylamino)pyridin-2-yl]thiazol-2-yl}piperidin-4-yl)acetic acid dihydrochloride] cannot be ordered by IC50: less than 100 nM for the first, less than 100 nM for the second.

`Cc1ccnc(Nc2cccc(-c3cnc(N(C)C(C(=O)N4CCC(O)CC4)C(C)C)s3)n2)c1` (stereo not drawn) [Compound A-675] and `Cc1ccnc(Nc2cccc(-c3cnc(N(C)C(C(=O)NCC(F)(F)F)C(C)C)s3)n2)c1` (stereo not drawn) [Compound A-676] fall in the same range of IC50: 100 to 1000 nM for the first, 100 to 1000 nM for the second.

Compared with `CC(C)(O)c1ccnc(Nc2cccc(-c3cnc(N4CCC(CC(=O)O)CC4)s3)n2)c1` [Compound A-717, [1-(5-{6-[4-(1-hydroxy-1-methylethyl)pyridin-2-ylamino]pyridin-2-yl}thiazol-2-yl)piperidin-4-yl]acetic acid dihydrochloride], `Cc1ccnc(Nc2cccc(-c3cnc(N4C[C@H](O)C[C@H]4C(=O)O)s3)n2)c1` [Compound A-569] is higher in IC50: less than 100 nM for the first, 100 to 1000 nM for the second.

same assay, conditions: Tables 2-x, thiophene compounds B; read-out: sykHTRK ave IC50

Compared with `CC(=O)c1ccc(-c2cccc(N(C)c3cc(C)ccn3)n2)s1` [Compound B-90], `Cc1ccnc(Nc2cccc(-c3ccc(C(=O)N4CCC(C(=O)O)CC4)s3)n2)c1` [Compound B-115] is lower in IC50: greater than 1000 nM for the first, 100 to 1000 nM for the second.

`Cc1ccnc(Nc2cccc(-c3ccc(CNC(=O)[C@H]4CC[C@H](C(=O)O)CC4)s3)n2)c1` [Compound B-121] and `Cc1ccnc(Nc2cccc(-c3ccc(CN(C)C(=O)c4ccc(C(=O)O)cc4)s3)n2)c1` [Compound B-125] fall in the same range of IC50: 100 to 1000 nM for the first, 100 to 1000 nM for the second.
